The source of these data is patent US9446019B2, “Sparstolonin B based pharmaceutical agent for neuroblastoma treatment” (University of South Carolina, priority 2013, dated 2016).

The test system of test [1] is reactive oxygen species in neuroblastoma cells. Briefly: ROS generation, H2DCFDA fluorometry assay. The test is classed as cell-based, human. The procedure: The production of reactive oxygen species (ROS) in SsnB-treated neuroblastoma cells was detected by a cell-permeable fluorescence probe H2DCFDA (carboxy-2′,7′-dichlorodihydrofluorescein diacetate) according to the manufacturer's instructions (Invitrogen, Carlsbad, Calif.). Briefly, neuroblastoma cells were cultured in DMEM with 10% FBS in Lab-TekII chamber slides (Fisher Scientific, Pittsburg, Pa.) and treated with SsnB for 2 days (SH-SY5Y and IMR-32 cells), 3 days (NGP cell) or 4 days (SKNF-1 and SK-N-BE(2) cells). After treatments, cells were washed with Hank's buffered salt solution (HBSS; Thermo Scientific, Waltham, Mass.) and incubated with 25 μM of carboxy-H2DCFDA dye for 30 min at 37° C. in dark. Nuclei were counterstained with DAPI. Cells were washed three times with HBSS, mounted with Vectashield mounting medium (Vector Laboratories), and immediately examined under Nikon-E600 fluorescence microscopy equipped with fluorescein isothiocyanate (FITC) filter. Oxidation of H2DCFDA probe occurs almost exclusively in the cytosol, and generates a fluorescence that is proportional to ROS generation in that cell. As a negative control, cells without H2DCFDA dye were used to detect autofluorescence. The fluorometric analysis to detect generation of ROS was performed. Briefly, after treatments with SsnB as mentioned above, cells were labeled with carboxy-H2DCFDA dye (25 μM) for 30 min at 37° C. Cells were trypsinized, washed, and re-suspended in PBS and fluorescence intensity was monitored at excitation wavelength 485 nm and emission wavelength 530 nm with a spectramax spectrophotometer (Molecular Devices, Sunnyvale, Calif.).
SsnB-induced generation of ROS was also evaluated by fluorometry assay. Neuroblastoma cells as treated above were incubated with H2DCFDA dye for 30 min and the fluorescence intensity was measured at 485 nm (excitation wavelength) and 530 nm (emission wavelength).

The subject of the next test is SH-SY5Y tumors. Type of test: in vivo. Here is the method: Six-week-old female homozygous athymic nude mice (nu/nu; strain-Crl:NU-Foxn1nu) were purchased from Charles River Laboratories (Wilmington, Mass.), and housed in the University of South Carolina Animal Research Facility. All animal experiments were carried out in compliance with the National Institute of Health (NIH) guidelines and were approved by the Institutional Animal Care and Use Committee (IACUC) of the University of South Carolina. The animals were maintained at 25° C. with a 12-h light/12-h dark cycle in laminar flow cabinets under specific pathogen-free conditions and given sterile water and food ad libitum.
A neuroblastoma xenograft mice model using SH-SY5Y cells was used. To develop localized subcutaneous tumors, 2×10^7 SH-SY5Y cells were mixed 1:1 with matrigel (BD biosciences, San Jose, Calif.) to make 0.1 ml total volume, and cells were injected subcutaneously into the flank region of mice using sterile 27-gauge needle. The animal weight and general appearance were recorded regularly throughout the experiments. On every third day, tumor size was measured with calipers and tumor volume was calculated using the ellipsoid formula (length×width×height×0.5).
Tumor-bearing mice were divided into two groups—(i) control without SsnB treatment, n=4; and (ii) experimental with SsnB treatment (10 mg/kg body weight per mice), n=4. […]
Paraformaldehyde-fixed paraffin-embedded tumor sections (5 μm thick) were deparaffinized in xylene and rehydrated with sequential immersion in graded ethanol (100%, 95%, 85%, 70% and 50%). […] Primary antibodies were detected with secondary antibodies conjugated with fluorescein isothiocyanate (FITC) (1:4000 dilution in 5% IgG-free BSA/PBS) for 2 h at room temperature. After washing with 1×PBS for 4 times (10 min for each washing), sections were mounted with antifade Vectashield mounting media (Vector Laboratories, Burlingame, Calif.), and signals were visualized under Nikon-E600 fluorescence microscope (Nikon, Tokyo, Japan). […]

A further test concerns SKNF-1 cells. Briefly: Cell cycle analysis by flow cytometry (propidium iodide). Type of test: cell-based, human. Conditions: SsnB 10 μM, 4 days; control=14.53%. Here is the method: (§1) The cell cycle progression was determined by flow cytometer analysis. Neuroblastoma cells were treated with SsnB or DMSO in DMEM with 10% FBS. Cells were collected after trypsinization with trypsin-EDTA solution (Atlanta Biologicals) and washed with 1× phosphate buffered saline (PBS). Approximately 1×10^6 cells were suspended in 300 μl of ice-cold 1×PBS, fixed by adding 700 μl of chilled absolute ethanol (to make final ethanol concentration 70%) drop wise and incubated for overnight at −20° C. Cells were pelleted at 1000×rpm for 5 min at 4° C., washed with 1×PBS for 3 times and stained with propidium iodide (Sigma-Aldrich, St. Louis, Mo.) by adding 1 ml of propidium iodide staining solution (containing 20 μg/ml propidium iodide and 10 μg/ml DNase-free RNase A in 0.1% Triton X-100/PBS) for 1 h on ice in dark. Samples were subjected to fluorescence-activated cell sorting analyses utilizing Beckman Coulter flow cytometer (Beckman Coulter, Indianapolis, Ind.). A minimum of 10,000 events were analyzed in each experiment.
(§2) To test whether SsnB-induced cell growth inhibition occurs through cell cycle arrest, cell cycle distribution was analyzed by flow cytometry after DNA staining with propidium iodide.
A general note: A flow cytometer gives signals particle by particle.

In the next test the test system is NGP cells. Described as above. The test is classed as cell-based, human. Conditions: SsnB 10 μM, 3 days; control=17.87%. Here is the method:
as §1, §2

With `O=c1occ2c3c(ccc(O)c13)Oc1ccc(O)cc1-2` [SsnB, 8,5′-dihydroxy-4-phenyl-5,2′-oxidoisocoumarin], the “H2DCFDA fluorescence intensity vs DMSO” value in test [1] (SsnB 1 μM, nonsignificant) is on record as “almost similar”; in test [1] (SsnB 10 μM, p<0.05), “significantly increased”. The molecule also came in with an average tumor volume with SH-SY5Y tumors (10 mg/kg body weight daily intraperitoneal, 15 days, control 883.75±68.23 mm^3) of 146.5±14.08 mm^3. In addition, the “cleaved caspase-3 signals in tumors” value in the test with SH-SY5Y tumors (10 mg/kg, immunohistochemistry, p<0.05 vs control) is “significantly detected”. Further, in the test on SH-SY5Y tumors (10 mg/kg, p<0.05 vs control), the “TUNEL positive cells in tumors” value is “increased the number of TUNEL positive cells”. Moreover, the G2/M phase cells with SKNF-1 cells was 20.91%; in the test with NGP cells it was 26.98%.
